# Earlier results as cited in paper PMC3791449, “Mechanism of amyloid β−protein dimerization determined using single−molecule AFM force spectroscopy” (Scientific Reports, 2013).
# Test system: Aβ(13−23) dimer
# Conditions: antiparallel β−sheet structures; cited from earlier work
substance,measurement,value
"Aβ(13−23): Aβ(13−23) peptide of published MD simulations (HHQKLVFFAED; Amyloid-beta protein 42; UniProt P05067 684-694, looked up, fragment)",dimer stability by MD simulation,high dimer stability
